From patent US20090217390A1, “Non-human animal sarcoma model” (priority 2005, published 2009)
Where “and” joins values, the source holds several entries; their conditions need not be identical. Equal values may be shown once.

Legend:
Format in all cases: cell-based, mouse
[1] = tested on: EWS-FLI1 chimeric fusion expression in clone 7.5; experiment: Induction of chimeric fusion by doxycycline (RT-PCR), clone 7.5; conditions: 48 hours
Experimental: (§1) FIG. 3. Induction of chimeric fusion by Doxycycline. A. Upper gel. Induction of chimeric fusion following treatment of the cells with increasing doxycycline doses (0-3 μg/ml) in clone 7.5. The maximum induction was obtained for 2.5-μg/ml doxycycline doses. Lower gel. The quantity of amplified product was identical in all cases, as shown by Beta-actin. B. Upper gel. The maximum induction for clone 10.6 was at 1.5-μg/ml doxycycline doses. Higher doses caused saturation of the promoter's response. Lower gel. Beta-actin.
(§2) Clones 7.5 and 10.6 received increasing doses of doxycycline for 48 hours, after which time the presence of fusion was examined by means of RT-PCR.

[2] = tested on: EWS-FLI1 chimeric fusion expression in clone 10.6; experiment: Induction of chimeric fusion by doxycycline (RT-PCR), clone 10.6; conditions: 48 hours
Experimental: as §1, §2

[3] = tested on: C3H/10T1/2 parental cell line; experiment: Cytotoxicity experiment with increasing doses of blasticidin; conditions: doses 0.3-3 μg/ml
Experimental: The selective blasticidin dose was established on the basis of a previous cytotoxicity experiment for the C3H/10T1/2 parental cell line, which received increasing doses of blasticidin (0.3, 0.6, 0.8, 1, 1.5, 2, 2.5, 3 μg/ml). 2 μg/ml was determined to be the lowest dose that induced 100% death due to cytotoxicity.

Compound	doxycycline dose causing a slight induction of chimeric fusion [1]	doxycycline concentration of maximum induction of chimeric fusion ([1]; doses 0-3 μg/ml)	doxycycline concentration of maximum induction of chimeric fusion (higher doses cause no greater induction) [2]	doxycycline dose at which induction of fusion was found [2]	lowest dose that induced 100% death due to cytotoxicity [3]
C[C@H]1c2cccc(O)c2C(=O)C2=C(O)[C@]3(O)C(=O)C(C(N)=O)=C(O)[C@@H](N(C)C)[C@@H]3[C@@H](O)[C@@H]21 [doxycycline]	0.3 µg/mL	2.5 µg/mL	1.5 to 2 µg/mL and 1.5 µg/mL	greater than 0.3 μg/ml	
CN(CC[C@H](N)CC(=O)N[C@H]1C=C[C@H](n2ccc(N)nc2=O)O[C@@H]1C(=O)O)C(=N)N [blasticidin]					2 µg/mL
